This is an account of results in patent publication US20260002166A1, “GENETIC ENGINEERING OF MARINE BACTERIA FOR BIOMATERIAL PRODUCTION, PROBIOTIC USE IN AQUACULTURE AND MARINE ENVIRONMENTAL RESTORATION” (San Diego State University (SDSU) Foundation, dba San Diego …, priority 2022, published 2026).

As a reminder, the MIC is the least concentration at which growth counts as inhibited.

Values after ≈ are worked out from the molar mass of the structure shown.

Series [1] relates to Endozoicomonas montiporae CL-33 (NJS662). In words: Minimum inhibitory concentration of kanamycin. It is filed as cell-based. To be noted: Endozoicomonas montiporae CL-33, Wild type. Here is the method:
(§1) • 1. Streak out marine microbes onto Marine Agar plates and incubate overnight at 25° C.-28° C. Some strains take longer to grow to single colonies. Incubation times longer than 24 hours may be required for some slower growing strains. Monitor growth in future steps accordingly.
(§2) • 2. Inoculate a single colony into 5 mL Marine Broth (2216) media in the late afternoon/early evening. Incubate overnight at 25 C, shaking at 200 rpm.
(§3) • 3. Measure optical density (OD600) of overnight culture growth and document. • 4. Pipette 100 μL of overnight culture from each strain onto Marine Agar plates containing either Strep (for background resistance), Kan (MIC), Gent (MIC) at each concentration (25 μg/mL, 50 μg/mL, 100 μg/mL and 200 μg/mL). • 5. Use beads or plate spreader to spread the culture evenly on the plate. Remove the beads and incubate overnight at 25° C. overnight.
(§4) • 6. Observe and document growth on all concentration plates. For the MICs (Kan/Gent) identify the lowest concentration of media in which no colonies are observed. If there are no colonies at any concentration, screen lower concentrations of Kanamycin/Gentamicin in the media (i.e. 5, 10, 15, 20 μg/mL). • 7. For the Streptomycin Resistant strain, select a single colony from the highest dose of Streptomycin that has growth and streak it out onto a plate containing the same concentration and a plate containing the next highest concentration of antibiotics. Incubate overnight at 25 C.
(§5) • 8. Observe and document growth on both the MIC plates (2 days old) and the Streptomycin resistance plates. If Streptomycin resistance is sustained at less than 200 μg/mL, then continue step 7, passaging the strains onto higher concentrations of antibiotics. Once robust growth occurs at 200 μg/mL, inoculate a single colony into 5 mL Marine Broth containing Strep 200 μg/mL and incubate 25° C. overnight, shaking at 200 rpm.

Series [2] deals with Shimia sp. MMG (NJS302). In words: Minimum inhibitory concentration of kanamycin. Conditions: Wild type. It is filed as cell-based. Here is the method:
as §1, §2, §3, §4, §5

For series [3], the system named is Ruegeria pomeroyi DSS-3 (NJS409). Kind of series: Minimum inhibitory concentration of kanamycin. It is filed as cell-based. To be noted: Ruegeria pomeroyi DSS-3, Wild type. Here is the method:
as §1, §2, §3, §4, §5

Series [4] relates to Pseudoalteromonas luteoviolacea HI1 (NJS005, StrR). Kind of series: Minimum inhibitory concentration of kanamycin. Conditions: read-out: MIC Kan. It is filed as cell-based. The method, then: as §1, §2, §3, §4, §5
The test system of series [5] is Pseudoalteromonas sp. PS5 (NJS597, StrR). In words: Minimum inhibitory concentration of kanamycin. In kind it is cell-based. To be noted: read-out: MIC Kan. The method, then: as §1, §2, §3, §4, §5
Series [6] relates to Phaeobacter gallaeciensis ATCC 700781 (DSM 26640) (NJS408, Wild type). Kind of series: Minimum inhibitory concentration of kanamycin. It is filed as cell-based. To be noted: Phaeobacter gallaeciensis ATCC 700781, Wild type. Here is the method: as §1, §2, §3, §4, §5
The test system of series [7] is Photobacterium mandapamensis svers.3.2 (MT002). Kind of series: Minimum inhibitory concentration of kanamycin. In kind it is cell-based. To be noted: Photobacterium leiognathi, Photobacterium mandapamensis svers.3.2, Wild type. Here is the method: as §1, §2, §3, §4, §5
Series [8] has as its system Cobetia sp. MMG (NJS775). In words: Minimum inhibitory concentration of kanamycin. In kind it is cell-based. To be noted: Wild type. The method, then:
as §1, §2, §3, §4, §5

Series [9] relates to Vibrio harveyi (NJS675, StrR). Kind of series: Minimum inhibitory concentration of kanamycin. It is filed as cell-based. To be noted: read-out: MIC Kan. The method, then: as §1, §2, §3, §4, §5
Series [10] deals with Nereida sp. MMG025 (NJS678). Kind of series: Minimum inhibitory concentration of kanamycin. Conditions: Nereida sp. MMG025, Wild type. It is filed as cell-based. The method, then:
as §1, §2, §3, §4, §5

Series [11] relates to Leisingera sp. 204H (NJS204, Wild type). Kind of series: Minimum inhibitory concentration of kanamycin. It is filed as cell-based. Here is the method: as §1, §2, §3, §4, §5
For series [12], the system named is Phaeobacter sp. HS012 (NJS491). In words: Minimum inhibitory concentration of kanamycin. It is filed as cell-based. Conditions: Phaeobacter sp. HS012, Wild type. The method, then: as §1, §2, §3, §4, §5
The test system of series [13] is phytoplankton. To be noted: [31]; cited from earlier work.
For series [14], the system named is two other types of invertebrate larvae. To be noted: two other types of invertebrate larvae [29]; cited from earlier work.
Series [15] concerns Pacific and Atlantic corals. To be noted: synthesized TBP; cited from earlier work.
For series [16], the system named is sea urchin. To be noted: [32]; cited from earlier work.

Regarding `NC[C@H]1O[C@H](O[C@H]2[C@H](O)[C@@H](O[C@H]3O[C@H](CO)[C@@H](O)[C@H](N)[C@H]3O)[C@H](N)C[C@@H]2N)[C@H](O)[C@@H](O)[C@@H]1O` [Kan, kanamycin], the MIC in series [1] is 100 µg/mL (≈ 206 µM); in [2] it was 300 µg/mL (≈ 619 µM); in series [3], 300 µg/mL (≈ 619 µM); in [4], 200 µg/mL (≈ 413 µM); in series [5], 200 µg/mL (≈ 413 µM); in series [6] it was 300 µg/mL (≈ 619 µM). Further, the MIC in series [7] is 400 µg/mL (≈ 826 µM); in [8] it was 200 µg/mL (≈ 413 µM); in [9], 200 µg/mL (≈ 413 µM); in series [10] it was 200 µg/mL (≈ 413 µM); in series [11], 200 µg/mL (≈ 413 µM); in series [12], 300 µg/mL (≈ 619 µM).

Regarding `Brc1[nH]c(Br)c(Br)c1Br` [TBP, tetrabromopyrrole], in [13], the Phytoplankton mortality entry is listed as “elicits phytoplankton mortality”. Further, the “Metamorphosis in other invertebrate larvae” value in series [14] is “not eliciting robust metamorphosis”. Further, the “Induction of coral metamorphosis” value in series [15] is given as “induce robust metamorphosis”. Also, the Sea urchin development result in [16] is on record as “halts sea urchin development”.
